From patent publication US9926297B2, “Bicyclic AZA compounds as muscarinic M1 receptor and/or M4 receptor agonists” (Heptares Therapeutics Limited, priority 2014, dated 2018)

Legend:
[1] = target: T1, human muscarinic M2 receptor (Homo sapiens, UniProt P08172); assay: Alphascreen Surefire phospho-ERK1/2 functional assay, M2; conditions: for Emax: CHO, read-out: % Emax cf. ACh, M2, CHO cells stably expressing human M2; for Emax / % Emax cf. ACh, M2: relative to ACh; for pEC50 M2 / % Emax cf. ACh, M2: CHO cells stably expressing human M2; for pEC50 M2: phospho-ERK1/2, * = variable results
T1 sequence (P08172 1-466): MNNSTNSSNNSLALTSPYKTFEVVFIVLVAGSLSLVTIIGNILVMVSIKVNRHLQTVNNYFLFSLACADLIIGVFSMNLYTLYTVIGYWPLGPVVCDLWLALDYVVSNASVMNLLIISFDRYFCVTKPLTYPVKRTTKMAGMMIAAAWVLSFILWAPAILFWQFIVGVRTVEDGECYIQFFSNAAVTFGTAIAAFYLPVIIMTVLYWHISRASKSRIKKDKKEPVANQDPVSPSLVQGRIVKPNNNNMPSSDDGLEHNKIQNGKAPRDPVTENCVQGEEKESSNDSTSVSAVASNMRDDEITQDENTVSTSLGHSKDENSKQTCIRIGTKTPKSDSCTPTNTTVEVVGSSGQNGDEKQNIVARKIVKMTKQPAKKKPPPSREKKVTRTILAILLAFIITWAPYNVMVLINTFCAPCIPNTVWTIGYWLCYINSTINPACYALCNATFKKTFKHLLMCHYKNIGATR

[2] = target: T2, human muscarinic M4 receptor (Homo sapiens, UniProt P08173); assay: Alphascreen Surefire phospho-ERK1/2 functional assay, M4; format: cell-based; conditions: for EC50: read-out: pEC50 M4 (converted); for Emax: CHO, read-out: % Emax cf. ACh, M4, CHO cells stably expressing human M4; for Emax / % Emax cf. ACh, M4: relative to ACh
T2 construct: expressed in transfected cells
T2 sequence (P08173 1-479): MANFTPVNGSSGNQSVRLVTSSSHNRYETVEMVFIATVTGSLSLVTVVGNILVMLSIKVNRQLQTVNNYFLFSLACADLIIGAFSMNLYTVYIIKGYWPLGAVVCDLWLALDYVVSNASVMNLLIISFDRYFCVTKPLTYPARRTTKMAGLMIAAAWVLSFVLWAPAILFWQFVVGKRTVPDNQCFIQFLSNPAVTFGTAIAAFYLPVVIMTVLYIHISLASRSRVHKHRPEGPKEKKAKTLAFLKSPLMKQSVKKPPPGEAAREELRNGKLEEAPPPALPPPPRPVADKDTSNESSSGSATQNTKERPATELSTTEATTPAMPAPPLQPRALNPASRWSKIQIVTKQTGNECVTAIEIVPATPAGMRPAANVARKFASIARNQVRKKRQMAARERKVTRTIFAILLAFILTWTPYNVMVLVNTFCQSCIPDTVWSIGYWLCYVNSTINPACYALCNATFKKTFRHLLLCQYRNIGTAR

[3] = target: T3, human muscarinic M1 receptor (Homo sapiens, UniProt P11229); assay: Alphascreen Surefire phospho-ERK1/2 functional assay, M1; format: cell-based; conditions: for EC50: read-out: pEC50 M1 (converted); for Emax: CHO, read-out: % Emax cf. ACh, M1, CHO cells stably expressing human M1; for Emax / % Emax cf. ACh, M1: relative to ACh
T3 sequence (P11229 1-460): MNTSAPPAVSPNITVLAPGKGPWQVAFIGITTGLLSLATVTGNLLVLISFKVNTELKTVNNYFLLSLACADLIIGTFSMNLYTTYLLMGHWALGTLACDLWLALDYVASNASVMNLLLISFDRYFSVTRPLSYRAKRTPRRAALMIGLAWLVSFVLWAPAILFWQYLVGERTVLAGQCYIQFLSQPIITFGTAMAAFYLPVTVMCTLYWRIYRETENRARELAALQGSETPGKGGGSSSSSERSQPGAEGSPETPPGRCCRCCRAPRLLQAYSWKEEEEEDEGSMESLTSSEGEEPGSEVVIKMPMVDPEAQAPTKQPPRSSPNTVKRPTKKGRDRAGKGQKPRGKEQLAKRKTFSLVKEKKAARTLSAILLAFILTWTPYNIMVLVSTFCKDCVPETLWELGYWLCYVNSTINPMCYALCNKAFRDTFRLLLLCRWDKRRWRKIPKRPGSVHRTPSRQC
Procedure: (§1) CHO cells stably expressing the human muscarinic M1, M2, M3 or M4 receptor were plated (25K/well) onto 96-well tissue culture plates in MEM-alpha+10% dialysed FBS. Once adhered, cells were serum-starved overnight. Agonist stimulation was performed by the addition of 5 μL agonist to the cells for 5 min (37° C.). Media was removed and 50 μL of lysis buffer added. After 15 min, a 4 μL sample was transferred to 384-well plate and 7 μL of detection mixture added. Plates were incubated for 2 h with gentle agitation in the dark and then read on a PHERAstar plate reader.
(§2) pEC50 and Emax figures were calculated from the resulting data for each receptor subtype.

[4] = target: human muscarinic M3 receptor (Homo sapiens, UniProt P20309); assay: Alphascreen Surefire phospho-ERK1/2 functional assay, M3; conditions: for Emax: CHO, read-out: % Emax cf. ACh, M3, CHO cells stably expressing human M3; for Emax / % Emax cf. ACh, M3: relative to ACh; for EC50: pEC50 M3, CHO cells stably expressing human M3; for EC50 / pEC50 M3: phospho-ERK1/2, * = variable results; for pEC50 M3 / % Emax cf. ACh, M3: CHO cells stably expressing human M3
Procedure: as §1, §2

[5] = CHO cells stably expressing human M4, phospho-ERK1/2, * = variable results
[6] = CHO cells stably expressing human M1, phospho-ERK1/2, * = variable results
[7] = CHO cells stably expressing human M4
[8] = CHO cells stably expressing human M1

Chain of human muscarinic M3 receptor (P20309 whole entry): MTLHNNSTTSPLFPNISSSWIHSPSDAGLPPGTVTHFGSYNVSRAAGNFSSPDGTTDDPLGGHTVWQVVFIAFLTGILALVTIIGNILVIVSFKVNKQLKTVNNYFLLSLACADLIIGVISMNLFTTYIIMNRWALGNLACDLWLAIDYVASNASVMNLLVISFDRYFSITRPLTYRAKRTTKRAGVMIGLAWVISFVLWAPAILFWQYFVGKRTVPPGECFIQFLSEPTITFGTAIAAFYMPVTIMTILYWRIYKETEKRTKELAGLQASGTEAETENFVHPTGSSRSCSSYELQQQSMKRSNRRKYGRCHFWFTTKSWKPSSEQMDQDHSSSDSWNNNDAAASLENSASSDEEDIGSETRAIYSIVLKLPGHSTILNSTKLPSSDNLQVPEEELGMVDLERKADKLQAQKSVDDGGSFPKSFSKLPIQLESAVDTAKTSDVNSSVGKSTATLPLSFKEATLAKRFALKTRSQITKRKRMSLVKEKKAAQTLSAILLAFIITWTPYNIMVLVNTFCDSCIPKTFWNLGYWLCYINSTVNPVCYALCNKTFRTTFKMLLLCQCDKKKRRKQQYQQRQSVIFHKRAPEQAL

SMILES | EC50 [1] [nM] | Emax [1] [%] | EC50 [2, 5] [nM] | Emax [2] [%] | EC50 [3, 6] [nM] | Emax [3] [%] | Emax [4] [%] | EC50 [4] [nM] | % Emax cf. ACh, M4 [2, 7] [%] | % Emax cf. ACh, M1 [3, 8] [%] | pEC50 M2 [1] | % Emax cf. ACh, M2 [1] [%] | pEC50 M4 [2, 5] | pEC50 M1 [3, 6] | pEC50 M3 [4] | % Emax cf. ACh, M3 [4] [%]
CCOC(=O)N1CCC2(CC(N3CCC([C@@H]4CCCN4C(=O)NC(C)C)CC3)C2)C1 (single isomer, unassigned) [2-25 Isomer 2] | > 20000 | 6 | 10 | 86 | 631 | 74 | 2 | > 20000 | – | – | – | – | – | – | – | –
CCOC(=O)N1CCC2(CC(N3CCC(N4CCCC(F)(F)C4)CC3)C2)C1 (single isomer, unassigned) [4-13 Isomer 2, ethyl 2-(3,3-difluoro-1,4′-bipiperidin-1′-yl)-6-azaspiro[3.4]octane-6-carboxylate] | > 20000 | 10 | 100 | 59 | 631 | 51 | 13 | > 20000 | – | – | – | – | – | – | – | –
CCOC(=O)N1CCC2(CC(N3CCC([C@@H]4CCCN4CC(F)(F)F)CC3)C2)C1 (single isomer, unassigned) [2-69 Isomer 2] | > 20000 | 3 | 12.6 | 110 | 398 | 87 | 2 | > 20000 | – | – | – | – | – | – | – | –
CCOC(=O)N1CCC2(CC(N3CCC(N4CC(F)(F)C[C@@H]4C(=O)NC)CC3)C2)C1 (single isomer, unassigned) [2-88 Isomer 2] | > 20000 | 80 | 39.8 | 44 | 316 | 25 | 5 | > 20000 | – | – | – | – | – | – | – | –
CCOC(=O)N1CCC2(CC(N3CCC([C@@H]4CCCN4C(=O)N(C)C4COC4)CC3)C2)C1 (single isomer, unassigned) [2-57 Isomer 2] | > 20000 | 25 | 31.6 | 117 | > 20000 | 16 | 4 | > 20000 | – | – | – | – | – | – | – | –
CCOC(=O)N1CCC2(CC(N3CCC(C4CCCN4C(=O)CC)CC3)C2)C1 (single isomer, unassigned) [2-6 Isomer 2, ethyl 2-[4-(1-propanoylpyrrolidin-2-yl)piperidin-1-yl]-6-azaspiro[3.4]octane-6-carboxylate] | > 20000 | 30 | 15.8 | 132 | 3160 | 57 | 16 | > 20000 | – | – | – | – | – | – | – | –
CCOC(=O)N1CCC2(CC(N3CCC(C4CCCNC4=O)CC3)C2)C1 (single isomer, unassigned) [4-1 Isomer 4, ethyl 2-(2-oxo-3,4′-bipiperidin-1′-yl)-6-azaspiro[3.4]octane-6-carboxylate] | > 20000 | 3 | 50.1 | – | 398 | – | 5 | > 20000 | 68 | 58 | – | – | – | – | – | –
CCOC(=O)N1CCC2(CC(N3CCC(N4CSC[C@@H]4C(=O)OC)CC3)C2)C1 (single isomer, unassigned) [2-97 Isomer 2] | > 20000 | 3 | 39.8 | 37 | > 20000 | 5 | 3 | > 20000 | – | – | – | – | – | – | – | –
COC(=O)N1CCC2(CC(N3CCC(c4nccn4C)CC3)C2)C1 (single isomer, unassigned) [1-6 Isomer 2, methyl 2-[4-(1-methyl-1H-imidazol-2-yl)piperidin-1-yl]-6-azaspiro[3.4]octane-6-carboxylate] | > 20000 | 57 | 63.1 | 71 | 1260 | 128 | 38 | 63.1 | – | – | – | – | – | – | – | –
CCOC(=O)N1CCC2(CC(N3CCC(C#N)(c4ccccn4)CC3)C2)C1 (single isomer, unassigned; isomer 1) [3-10 Isomer 1] | – | – | – | – | – | – | – | – | 71 | 42 | < 4.7 | 3 | 7.1 | 5.9 | < 4.7 | 5
CCOC(=O)N1CCC2(CC(N3CCC(c4cccc(OC)n4)CC3)C2)C1 (single isomer, unassigned) [3-13 Isomer 2, ethyl 2-[4-(6-methoxypyridin-2-yl)piperidin-1-yl]-6-azaspiro[3.4]octane-6-carboxylate] | > 20000 | 2 | 12.6 | 82 | 12.6 | 97 | 1 | > 20000 | – | – | – | – | – | – | – | –
CCOC(=O)N1CCC2(CC(N3CCC([C@@H]4CCCN4C(=O)CC)CC3)C2)C1 (single isomer, unassigned) [2-7 Isomer 2] | > 20000 | 13 | 12.6 | 100 | 794 | 41 | 27 | 7940 | – | – | – | – | – | – | – | –
CCOC(=O)N1CCC2(CC(N3CCC([C@@H]4CCCN4C(=O)N(C)C)CC3)C2)C1 (single isomer, unassigned) [2-21 Isomer 2] | > 20000 | 4 | 7.94 | 113 | 631 | 46 | 2 | > 20000 | – | – | – | – | – | – | – | –
CCOC(=O)N1CCC2(CC(N3CCC([C@@H]4CCCN4C(=O)NOC)CC3)C2)C1 (single isomer, unassigned) [2-33 Isomer 2] | – | – | 20 | – | > 20000 | – | – | – | 65 | 4 | < 4.7 | 5 | – | – | < 4.7 | 5
CCOC(=O)N1CCC2(CC(N3CCC(C4CCCN4C(=O)OC)CC3)C2)C1 (single isomer, unassigned) [2-11 Isomer 2, ethyl 2-{4-[1-(methoxycarbonyl)pyrrolidin-2-yl]piperidin-1-yl}-6-azaspiro[3.4]octane-6-carboxylate] | > 20000 | 7 | 25.1 | 100 | – | 39 | 7 | > 20000 | – | – | – | – | – | – | – | –
CCOC(=O)N1CCC2(CC(N3CCC(N4C(=O)CCC4(C)C)CC3)C2)C1 (single isomer, unassigned) [2-117 Isomer 2, ethyl 2-[4-(2,2-dimethyl-5-oxopyrrolidin-1-yl)piperidin-1-yl]-6-azaspiro[3.4]octane-6-carboxylate] | > 20000 | 4 | 63.1 | 96 | 6310 | 99 | 7 | > 20000 | – | – | – | – | – | – | – | –
CCOC(=O)N1CCC2(CC(N3CCC(c4ccon4)CC3)C2)C1 (single isomer, unassigned) [1-43 Isomer 2, ethyl 2-[4-(1,2-oxazol-3-yl)piperidin-1-yl]-6-azaspiro[3.4]octane-6-carboxylate] | > 20000 | 7 | 31.6 | 61 | 158 | 32 | 8 | > 20000 | – | – | – | – | – | – | – | –
